Data reported in the NIST ThermoML archive (doi:10.1021/je8006138).
Numbers after ± are expanded uncertainties.

Tests used:
[1] = 101 kPa, Liquid; for viscosity: Capillary tube (Ostwald / Ubbelohde) method; for mass density: Pycnometric method
[2] = xn = mol fraction of the nth substance listed; conditions: 101 kPa, Liquid; for viscosity: Capillary tube (Ostwald / Ubbelohde) method; for mass density: Pycnometric method

C1CCCCC1 [cyclohexane]
[1]
Conditions	mass density [kg/m3]	viscosity [mPa·s]
293.15 K	778.6 ± 0.3	0.984 ± 0.009
298.15 K	773.9 ± 0.3	0.903 ± 0.008
303.15 K	769.2 ± 0.3	0.83 ± 0.008

C1CCCCC1 [cyclohexane] + CCCCC(CC)COP(=O)(OCC(CC)CCCC)OCC(CC)CCCC
[2], x2 = 0
Conditions	mass density [kg/m3]	viscosity [mPa·s]
293.15 K	778.6 ± 0.3	0.984 ± 0.009
298.15 K	773.9 ± 0.3	0.903 ± 0.008
303.15 K	769.2 ± 0.3	0.83 ± 0.008

CCCCCC [hexane]
[1]
Conditions	mass density [kg/m3]	viscosity [mPa·s]
293.15 K	659.9 ± 0.2	0.319 ± 0.006
298.15 K	655.3 ± 0.2	0.304 ± 0.006
303.15 K	650.8 ± 0.2	0.29 ± 0.006

CCCCCC [hexane] + CCCCC(CC)COP(=O)(OCC(CC)CCCC)OCC(CC)CCCC
[2], x2 = 0
Conditions	mass density [kg/m3]	viscosity [mPa·s]
293.15 K	659.9 ± 0.2	0.319 ± 0.006
298.15 K	655.3 ± 0.2	0.304 ± 0.006
303.15 K	650.8 ± 0.2	0.29 ± 0.006

CCCCC(CC)COP(=O)(OCC(CC)CCCC)OCC(CC)CCCC (stereo not given) [tris(2-ethylhexyl) phosphate]
[1]
Conditions	mass density [kg/m3]	viscosity [mPa·s]
293.15 K	923.8 ± 0.4	14.09 ± 0.095
298.15 K	920.1 ± 0.4	11.62 ± 0.079
303.15 K	916.4 ± 0.4	9.708 ± 0.067

CCCCC(CC)COP(=O)(OCC(CC)CCCC)OCC(CC)CCCC (stereo not given) [tris(2-ethylhexyl) phosphate] + C1CCCCC1
[2]
Conditions	mass density, 293.15 K [kg/m3]	mass density, 298.15 K [kg/m3]	mass density, 303.15 K [kg/m3]	viscosity, 293.15 K [mPa·s]	viscosity, 298.15 K [mPa·s]	viscosity, 303.15 K [mPa·s]
x1 = 0.0997	823.7 ± 0.3	819.4 ± 0.3	815.1 ± 0.3	1.709 ± 0.012	1.544 ± 0.011	1.404 ± 0.011
x1 = 0.1995	852.5 ± 0.3	848.3 ± 0.3	844.2 ± 0.3	2.71 ± 0.017	2.423 ± 0.016	2.176 ± 0.015
x1 = 0.2978	871.1 ± 0.3	867.1 ± 0.3	863.1 ± 0.3	3.894 ± 0.025	3.415 ± 0.022	3.025 ± 0.02
x1 = 0.4007	885.8 ± 0.3	881.8 ± 0.3	877.9 ± 0.3	5.246 ± 0.034	4.532 ± 0.03	3.948 ± 0.026
x1 = 0.4965	895.8 ± 0.3	892 ± 0.3	888 ± 0.4	6.629 ± 0.042	5.665 ± 0.037	4.896 ± 0.032
x1 = 0.582	902.8 ± 0.3	899 ± 0.4	895.1 ± 0.4	7.908 ± 0.05	6.682 ± 0.043	5.732 ± 0.038
x1 = 0.6955	910.4 ± 0.4	906.6 ± 0.4	902.8 ± 0.4	9.64 ± 0.061	8.09 ± 0.052	6.862 ± 0.045
x1 = 0.7732	914.6 ± 0.4	910.8 ± 0.4	907 ± 0.4	10.8 ± 0.069	9.002 ± 0.059	7.619 ± 0.051
x1 = 0.8997	920.2 ± 0.4	916.5 ± 0.4	912.6 ± 0.4	12.64 ± 0.083	10.5 ± 0.07	8.806 ± 0.06
x1 = 1	923.8 ± 0.4	920.1 ± 0.4	916.4 ± 0.4	14.09 ± 0.095	11.62 ± 0.079	9.708 ± 0.067

CCCCC(CC)COP(=O)(OCC(CC)CCCC)OCC(CC)CCCC (stereo not given) [tris(2-ethylhexyl) phosphate] + CCCCCC
[2]
Conditions	mass density, 293.15 K [kg/m3]	mass density, 298.15 K [kg/m3]	mass density, 303.15 K [kg/m3]	viscosity, 293.15 K [mPa·s]	viscosity, 298.15 K [mPa·s]	viscosity, 303.15 K [mPa·s]
x1 = 0.1027	739.4 ± 0.3	735.2 ± 0.3	730.9 ± 0.3	0.638 ± 0.007	0.594 ± 0.007	0.56 ± 0.007
x1 = 0.1999	789.2 ± 0.3	785 ± 0.3	780.9 ± 0.3	1.103 ± 0.009	1.019 ± 0.009	0.948 ± 0.008
x1 = 0.2976	823.2 ± 0.3	819 ± 0.3	815 ± 0.3	1.754 ± 0.012	1.608 ± 0.011	1.475 ± 0.01
x1 = 0.4047	851.5 ± 0.3	847.5 ± 0.3	843.5 ± 0.3	2.753 ± 0.017	2.485 ± 0.015	2.246 ± 0.014
x1 = 0.5005	869.7 ± 0.3	865.8 ± 0.3	861.9 ± 0.3	3.881 ± 0.024	3.438 ± 0.021	3.053 ± 0.019
x1 = 0.5889	883.6 ± 0.3	879.6 ± 0.3	875.8 ± 0.3	5.1 ± 0.032	4.479 ± 0.028	3.923 ± 0.025
x1 = 0.7133	898.9 ± 0.3	895.3 ± 0.3	891.4 ± 0.4	7.34 ± 0.046	6.247 ± 0.04	5.405 ± 0.035
x1 = 0.8032	908.3 ± 0.4	904.5 ± 0.4	900.8 ± 0.4	9.121 ± 0.058	7.73 ± 0.05	6.583 ± 0.043
x1 = 0.8907	916.3 ± 0.4	912.6 ± 0.4	908.9 ± 0.4	11.18 ± 0.072	9.353 ± 0.061	7.935 ± 0.053
x1 = 1	923.8 ± 0.4	920.1 ± 0.4	916.4 ± 0.4	14.09 ± 0.095	11.62 ± 0.079	9.708 ± 0.067
